Measurements from US5227163A, “Lice-repellant compositions” (priority 1992, dated 1993).

Test system: lice
Assay: Standard in vitro test on filter paper (petri-dish lice repellency)
Conditions: 10 min, 20±3° C.
Description: Screening tests were performed on many substances of the following groups: terpenes (hydrocarbons), terpenoid alcohols, terpenoid esters, terpenoid aldehydes and ketones, essential oils which contain terpenoids and perfumes which contain terpenoids, as well as various general insect repellents, for lice-repellency. Each experiment included exposure of the lice to different concentrations of the tested substance, and measuring the dose response of those materials.
A petri-dish method was used to examine the repellency of the solutions for lice. A filter paper (Whatman No. 4, 5.5 cm in diameter) was secured in a petri-dish. A 100 μl portion of the test solution was placed on a corduroy patch (1.5 cm^2). The material was allowed to dry for 30 min. at room temperature (20±3° C.) and the patch was placed at the periphery of the petri-dish. A patch treated with a control solution (96% Ethanol) was placed on the opposite side of the dish. Twenty female lice which had been fed 24 hours previously were placed in the middle of the dish. A box was placed over the dish and it was covered with a dark cloth in order to keep the test area in the dark. The experiment was carried out at room temperature (20°±3° C.) and lasted 10 min. The number of lice on the treated and controlled patches as well as on the area between the patches was recorded in a protocol. The experiment was repeated three times for each sample.
% repellency was calculated by the following formula:
where: T=number of lice on the treated patch
C=number of lice on the untreated patch
The following terms were recorded:
RC80 =Concentration giving 80% repellency.
RC50 =Concentration giving 50% repellency.
RD80 =mg/cm^2 giving 80% repellency.
RD50 =mg/cm^2 giving 50% repellency.

Compound	RC50 (Concentration giving 50% repellency) [%]	RC80 (Concentration giving 80% repellency) [%]	RD80 (mg/cm^2 giving 80% repellency) [mg/cm^2]	RD50 (mg/cm^2 giving 50% repellency) [mg/cm^2]
C=CC(C)(O)CCC=C(C)C (centres unmarked) [LINALOOL, linalool]	0.020	0.080	0.056	
CC(C)=CCCC(C)CCO (stereo not drawn) [β-CITRONELLOL, β-citronellol]	0.020	0.070	0.049	
C=C1CCC2CC1C2(C)C (stereo not drawn) [β PINENE]	0.200	1.100	0.770	
CC1=CC=C(C(C)C)CC1	0.900	1.500	1.050	
CC1CCC(C(C)C)C(OC(=O)C(C)O)C1 (centres unmarked) [MENTHYL LACTATE, menthyl lactate]	0.050	0.100	0.070	
IONONE	0.250	0.600	0.420	0.170
CC1CCC(C(C)C)C(O)C1 (centres unmarked) [MENTHOL, menthol]	0.030	0.150	0.105	
CC1=CCC(O)(C(C)C)CC1 (centres unmarked) [terpinen-4-ol]	0.020	0.090	0.063	
C=CC(C)CCCC(C)(C)O (centres unmarked) [DIHYDRO MYRCENOL, dihydro-myrcenol]	0.600	0.800	0.560	
C=C(C)C1CCC(C)C(=O)C1 (centres unmarked) [DIHYDRO CARVONE]	0.200	0.500	0.350	
CC(C)=CCCC(C)=CC=O [CITRAL]	0.300	0.600	0.420	
C=C(C)[C@@H]1CC=C(CO)CC1 [PERILLIL ALCOHOL, perillyl alcohol]	0.010	0.030	0.020	
CC1(C)C2CC=C(CO)C1C2 (centres unmarked) [MYRTENOL, myrtenol]	0.500	0.900	0.630	0.350
C=C(C)[C@@H]1CC=C(C)CC1 [- LIMONENE]	3.000	4.000	2.800	
C=C(C)[C@@H]1CC[C@@H](C)C[C@H]1O [ISOPULEGOL, isopulegol]	0.500	0.800	0.560	
CC(C)=CCC/C(C)=C/CO [GERANIOL, geraniol]	0.005	0.020	0.014	
C=C(C)C1CCC(C)C(O)C1 (centres unmarked) [DIHYDRO CARVEOL, dihydrocarveol]	0.400	0.900	0.630	0.280
CC1C(O)CC2CC1C2(C)C (centres unmarked) [ISOPINO-CAMPHEOL, iso-pinocampheol]	0.200	0.300	0.210	0.140
C=C(C)[C@H]1CC=C(C)CC1 [+ LIMONENE]	2.000	3.000	2.100	
CC1=CCC2C(C1)C2(C)C (centres unmarked) [CARENE]	1.000	2.000	1.400	
C=C(C)C1CCC(C)C(OC(C)=O)C1 (centres unmarked) [DIH[…]]	0.150	0.300	0.210	0.105
CC1(C)C2CCC(CO)C1C2 (stereo not drawn) [Cis MYRTANOL]	0.600	1.000	0.700	0.420
CC(=O)O[C@@H]1C[C@H]2CC[C@]1(C)C2(C)C (racemic) [ISO BORNYL ACETATE]	0.600	0.800	0.560	
CC1=CC(O)C2CC1C2(C)C (stereo not drawn) [Cis VERBENOL, cis-verbenol]	1.000	2.000	1.400	0.700
C=C(C)C1CC=C(C)[C@@H](O)C1 (some centres unmarked) [CARVEOL, carveol]	0.600	1.500	1.050	
CC(C)=C1CC[C@@H](C)CC1=O [PULEGONE]	0.400	0.700	0.490	
CC(C)=CCC/C(C)=C\CO [NEROL, nerol]	0.500	0.800	0.560	
C=C(C)C1CC=C(C)C(OC(=O)CC)C1 (centres unmarked) [CARVYL PROPRIONATE, carvyl propionate]	0.200	0.600	0.420	0.140
